Measured values: ChEMBL document CHEMBL1201862, “PubChem BioAssay data set” (2004)
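A five-concentration, 48-hour dose response in 96-well plates underlies each endpoint, interpolated linearly between surrounding concentrations. GI50 = concentration required for 50% inhibition of growth.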 The source made the active and inactive calls. Rule as the data show it: active = GI50 up to about 1.1 µM and inactive = higher.

Tests used:
Assay in all cases: NCI-60 cell line screen, 48 h
786-0 = system: 786-0
A498 = system: A498
A549 = system: A549
ACHN = system: ACHN
BT-549 = system: BT-549
CAKI-1 = system: CAKI-1
CCRF-CEM = system: CCRF-CEM
COLO 205 = system: COLO 205
DU-145 = system: DU-145
EKVX = system: EKVX
HCC 2998 = system: HCC 2998
HCT-116 = system: HCT-116
HCT-15 = system: HCT-15
HL-60 = system: HL-60
HOP-62 = system: HOP-62
HOP-92 = system: HOP-92
HT-29 = system: HT-29
Hs-578T = system: Hs-578T
IGROV-1 = system: IGROV-1
K562 = system: K562
KM12 = system: KM12
LOX IMVI = system: LOX IMVI
M14 = system: M14
MCF7 = system: MCF7
MDA-MB-231 = system: MDA-MB-231
MDA-MB-435 = system: MDA-MB-435
MDA-N = system: MDA-N
MOLT-4 = system: MOLT-4
Malme-3M = system: Malme-3M
NCI-H226 = system: NCI-H226
NCI-H23 = system: NCI-H23
NCI-H460 = system: NCI-H460
NCI-H522 = system: NCI-H522
NCI/ADR-RES = system: NCI/ADR-RES
OVCAR-3 = system: OVCAR-3
OVCAR-4 = system: OVCAR-4
OVCAR-5 = system: OVCAR-5
OVCAR-8 = system: OVCAR-8
PC-3 = system: PC-3
RPMI-8226 = system: RPMI-8226
RXF 393 = system: RXF 393
SF-268 = system: SF-268
SF-295 = system: SF-295
SF-539 = system: SF-539
SK-MEL-28 = system: SK-MEL-28
SK-MEL-2 = system: SK-MEL-2
SK-MEL-5 = system: SK-MEL-5
SK-OV-3 = system: SK-OV-3
SN12C = system: SN12C
SNB-19 = system: SNB-19
SNB-75 = system: SNB-75
SR = system: SR
SW-620 = system: SW-620
T47D = system: T47D
TK-10 = system: TK-10
U-251 = system: U-251
UACC-257 = system: UACC-257
UACC-62 = system: UACC-62
UO-31 = system: UO-31

Measured: GI50

CC(C)(C)OC(=O)N/C=C1\C(=O)Oc2ccccc2C1=O
11300 nM: HCT-15
inactive: 786-0 34600 nM | A498 8360 nM | A549 39600 nM | ACHN 20200 nM | BT-549 33700 nM | CAKI-1 15000 nM | CCRF-CEM > 100000 nM | COLO 205 51100 nM | DU-145 8670 nM | EKVX 47600 nM | HCC 2998 54000 nM | HCT-116 36000 nM | HL-60 > 100000 nM | HOP-62 17100 nM | HOP-92 45300 nM | HT-29 > 100000 nM | Hs-578T 13900 nM | IGROV-1 42500 nM | K562 > 100000 nM | KM12 37900 nM | LOX IMVI 37800 nM | M14 35600 nM | MCF7 70800 nM | MDA-MB-231 21800 nM | MDA-MB-435 39200 nM | MDA-N 34500 nM | MOLT-4 > 100000 nM | Malme-3M 31300 nM | NCI-H226 20700 nM | NCI-H23 42400 nM | NCI-H460 33200 nM | NCI/ADR-RES 41400 nM | OVCAR-3 29700 nM | OVCAR-4 33000 nM | OVCAR-5 46800 nM | OVCAR-8 40600 nM | PC-3 32300 nM | RPMI-8226 > 100000 nM | RXF 393 23200 nM | SF-268 25200 nM | SF-295 38500 nM | SF-539 14700 nM | SK-MEL-28 45100 nM | SK-MEL-2 14600 nM | SK-MEL-5 26100 nM | SN12C 24500 nM | SNB-19 38000 nM | SNB-75 23500 nM | SR > 100000 nM | SW-620 38500 nM | T47D 24000 nM | TK-10 14600 nM | U-251 19800 nM | UACC-257 31300 nM | UACC-62 38400 nM
active: NCI-H522 < 10 nM | SK-OV-3 29.4 nM | UO-31 82 nM

CC(C)SC1SCC2C(=O)N(C)C3(CC3C)C(=O)OCC(NC(=O)c3nc4ccccc4cc3O)C(=O)NC(C)C(=O)N(C)C1C(=O)N(C)C1(CC1C)C(=O)OCC(NC(=O)c1nc3ccccc3cc1O)C(=O)NC(C)C(=O)N2C (configuration not stated)
< 0.1 nM: HCT-15
active: 786-0 < 0.1 nM | A498 < 0.1 nM | A549 < 0.1 nM | ACHN < 0.1 nM | BT-549 10 nM | CAKI-1 < 0.1 nM | CCRF-CEM < 0.1 nM | COLO 205 < 0.1 nM | DU-145 < 0.1 nM | EKVX 2.98 nM | HCC 2998 < 0.1 nM | HCT-116 < 0.1 nM | HL-60 < 0.1 nM | HOP-62 < 0.1 nM | HOP-92 < 0.1 nM | HT-29 < 0.1 nM | Hs-578T < 0.1 nM | IGROV-1 < 0.1 nM | K562 < 0.1 nM | KM12 < 0.1 nM | LOX IMVI < 0.1 nM | M14 < 0.1 nM | MCF7 < 0.1 nM | MDA-MB-231 < 0.1 nM | MDA-MB-435 < 0.1 nM | MDA-N < 0.1 nM | MOLT-4 < 0.1 nM | Malme-3M < 0.1 nM | NCI-H226 < 0.1 nM | NCI-H23 < 0.1 nM | NCI-H460 < 0.1 nM | NCI-H522 < 0.1 nM | NCI/ADR-RES 4.46 nM | OVCAR-3 < 0.1 nM | OVCAR-4 < 0.1 nM | OVCAR-5 < 0.1 nM | OVCAR-8 < 0.1 nM | PC-3 < 0.1 nM | RPMI-8226 < 0.1 nM | RXF 393 < 0.1 nM | SF-268 < 0.1 nM | SF-295 < 0.1 nM | SF-539 < 0.1 nM | SK-MEL-28 < 0.1 nM | SK-MEL-2 < 0.1 nM | SK-MEL-5 < 0.1 nM | SK-OV-3 < 0.1 nM | SN12C < 0.1 nM | SNB-19 < 0.1 nM | SNB-75 < 0.1 nM | SR < 0.1 nM | SW-620 < 0.1 nM | T47D < 0.1 nM | TK-10 < 0.1 nM | U-251 < 0.1 nM | UACC-257 < 0.1 nM | UACC-62 < 0.1 nM | UO-31 < 0.1 nM

C[C@]12CC[C@H](O)C[C@H]1CC[C@@H]1[C@@H]2CC[C@]2(C)[C@@H](C3=CC(=O)OC3)[C@@H](O)C[C@]12O [GITOXIGENIN]
active: 786-0 995 nM | A549 445 nM | ACHN 451 nM | CCRF-CEM 510 nM | DU-145 1040 nM | EKVX 785 nM | HOP-62 1110 nM | Hs-578T 968 nM | MOLT-4 408 nM | NCI-H23 682 nM | NCI-H460 499 nM | NCI-H522 435 nM | OVCAR-3 457 nM | SF-268 845 nM | SF-539 849 nM | SN12C 566 nM | SR 977 nM | TK-10 625 nM | UO-31 914 nM
2580 nM: HCT-15
inactive: A498 2720 nM | BT-549 1890 nM | CAKI-1 1580 nM | COLO 205 2610 nM | HCC 2998 2470 nM | HCT-116 1660 nM | HL-60 1620 nM | HOP-92 9660 nM | HT-29 3270 nM | IGROV-1 2860 nM | K562 3380 nM | KM12 4850 nM | LOX IMVI 2900 nM | M14 2450 nM | MCF7 2050 nM | MDA-MB-231 4930 nM | MDA-MB-435 3010 nM | MDA-N 2420 nM | Malme-3M 1770 nM | NCI-H226 3120 nM | NCI/ADR-RES 1610 nM | OVCAR-4 1400 nM | OVCAR-5 2810 nM | OVCAR-8 2930 nM | PC-3 1440 nM | RPMI-8226 2770 nM | RXF 393 1150 nM | SF-295 1410 nM | SK-MEL-28 5130 nM | SK-MEL-2 2170 nM | SK-MEL-5 1300 nM | SK-OV-3 2710 nM | SNB-19 4450 nM | SNB-75 4150 nM | SW-620 3180 nM | T47D 3650 nM | U-251 2220 nM | UACC-257 2200 nM | UACC-62 2620 nM
